US20140378541A1, “Synthetic Epigallocatechin Gallate (EGCG) Analogs” (WAYNE STATE UNIVERSITY, priority 2011, published 2014)
Residue numbers refer to the chain shown, from its start.

Experiments:
[1] = molecular target: T1, purified rabbit 20S proteasome (Oryctolagus cuniculus, UniProt G1T4Q9); assay: Inhibition of chymotrypsin-like activity of purified 20S proteasome; assay type: biochemical; settings: purified 20S proteasome, concentration not stated
T1 sequence (G1T4Q9 60-263): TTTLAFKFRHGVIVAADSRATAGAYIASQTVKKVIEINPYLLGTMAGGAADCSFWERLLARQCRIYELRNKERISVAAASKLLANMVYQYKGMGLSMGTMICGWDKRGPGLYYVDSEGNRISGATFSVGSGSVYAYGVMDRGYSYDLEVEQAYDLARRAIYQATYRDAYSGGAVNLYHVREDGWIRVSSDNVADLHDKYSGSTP
Description: Purified 20S proteasome was incubated with compound 5, 7, 16, or 21 (A) or MDA-MB-231 cell extract (5.7 μg) was incubated with compound 6, 8, 17, or 22 (B) at indicated concentrations for 2 hours, followed by measuring the proteasomal chymotrypsin-like activity. EGCG was used as a comparative standard.
Purified rabbit 20S proteasome and fluorogenic substrate Suc-LLVY-AMC for the proteasomal chymotrypsin like (CT-like) activity were obtained from Calbiochem Inc. (San Diego, Calif.). Fetal bovine serum (FBS) was from Tissue Culture Biologicals (Tulare, Calif.). Penicillin and streptomycin were purchased from Invitrogen Co. (Carlsbad, Calif.). RPMI 1640 medium was purchased from Invitrogen Co. (Carlsbad, Calif.). MTT (3-4,5-dimethylthiazol-2-yl-2.5-diphenyl-tetrazolium bromide) was purchased from Sigma-Aldrich.
A purified rabbit 20S proteasome (35 ng) was incubated with 20 μM of substrate Suc-LLVY-AMC in 100 μl assay buffer (20 mM Tris-HCl, pH 7.5), in the presence of EGCG or EGCG analogs at different concentrations or the solvent for 2 h at 37° C., followed by measurement of hydrolysis of the fluorogenic substrates using a Wallac Victor3™ multi-label counter with 355-nm excitation and 460-nm emission wavelengths.

[2] = molecular target: T2, proteasomal chymotrypsin-like activity of MDA-MB-231 cell extracts (Homo sapiens, UniProt P28074); assay: Proteasomal chymotrypsin-like activity in MDA-MB-231 cell lysate with high COMT activity; assay type: biochemical; settings: 10 μM
T2 construct: endogenous in cells; host or cells: MDA-MB-231 human breast cancer cells (ATCC), cell extract
T2 sequence (P28074 60-263): T1 sequence (G1T4Q9 60-263) with D197E
Description: (A) MDA-MB-231 cell extracts (5.7 μg) were incubated with different concentrations of compound 5 or 7 or EGCG for 2 hours, followed by performance of proteasomal chymotrypsin-like activity assay. EGCG was used as a control. (B) MDA-MB-231 cell extracts (5.7 μg) were pre-treated with 10 μM DNC for 20 minutes, followed by co-incubation with compound 5, or 7 or EGCG for 2 h. The proteasomal chymotrypsin-like activity was measured.
Human breast cancer MDA-MB-231 cell lysate that contains high COMT activity were treated with varying concentrations of compound 5 or 7. […] Thus, consistent with previous reports EGCG is also susceptible to methylation by COMT (H., Lu, X. Meng, C. S. Yang, Drug Metabolism and Disposition; 31; 572, 2003).

[3] = tested on: human multiple myeloma ARP cells; assay: MTT assay in multiple myeloma ARP cells, alone or with Velcade; assay type: cell-based; settings: 20 μM plus varying doses of Velcade, 48 h
Description: The cells were treated with Velcade™ alone or with 20 μM of compounds 5, 7 and 23 or in combination with varying doses of Velcade™ for 48 hrs, followed by a MTT assay.
Human multiple myeloma cells (Arp and Opm1) cells, kindly provided by Dr. Ramesh Batchu (Wayne State University), were grown in RPMI-1640 medium supplemented with 10% FBS, 100 units/ml of penicillin, and 100 μg/ml of streptomycin. Cells were maintained at 37° C. in 5% CO2 (Mujtaba T, et al., Int J Mol Med. (2012) 29(1):102-6).
Cells were grown in a 96-well plate. Triplicate wells of cells were treated with indicated concentrations of EGCG or EGCG analogs for 24 h. After aspiration of medium, MTT (1 mg/ml) was then added to the cell cultures, followed by incubation for 3 h at 37° C. After cells were crystallized, MTT was removed and DMSO was added to dissolve the metabolized MTT product. The absorbance was then measured on a Wallac Victor3 1420 Multi-label counter at 540 nm.

SMILES	proteasomal inhibition (in words) [1]	inhibition at 10 µM [2] [%]	effect on cell proliferation when combined with Velcade [3]
O=C(O[C@@H]1Cc2c(O)cc(O)cc2O[C@@H]1c1cc(O)c(O)c(O)c1)c1cc(O)c(O)c(O)c1 [Compound 1, (−)-Epigallocatechin gallate, reference compound]	potently inhibited	~22	
O=C(O[C@H]1Cc2ccccc2C[C@H]1OC(=O)c1cc(O)c(Br)c(O)c1)c1cc(O)c(Br)c(O)c1 [Compound 23]			synergistic inhibitory effect
